Read-outs that look alike come from different tables or passages of the source. Values belong to the compound of their own block, whether it stands above or below them.
How the values were obtained:
Assay in all cases: biochemical
MYT1 = target: T1, MYT1 (Homo sapiens, UniProt Q99640)
T1 sequence (Q99640 1-499): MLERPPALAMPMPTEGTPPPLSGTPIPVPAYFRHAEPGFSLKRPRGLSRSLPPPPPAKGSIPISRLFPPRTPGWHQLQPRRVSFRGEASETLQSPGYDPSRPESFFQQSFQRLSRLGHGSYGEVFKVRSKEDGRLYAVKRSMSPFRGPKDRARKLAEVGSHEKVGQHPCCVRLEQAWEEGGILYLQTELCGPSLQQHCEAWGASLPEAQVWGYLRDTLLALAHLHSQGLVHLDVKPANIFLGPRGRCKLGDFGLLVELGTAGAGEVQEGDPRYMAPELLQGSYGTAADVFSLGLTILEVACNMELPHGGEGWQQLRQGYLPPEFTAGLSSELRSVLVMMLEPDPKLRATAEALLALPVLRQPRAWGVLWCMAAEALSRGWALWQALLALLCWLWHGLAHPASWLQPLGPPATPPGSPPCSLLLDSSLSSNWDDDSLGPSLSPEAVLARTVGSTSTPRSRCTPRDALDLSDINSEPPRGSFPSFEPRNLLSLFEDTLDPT

CaMK1g = CaMK1g (Homo sapiens, UniProt Q96NX5)
CaMK1g, sequence (Q96NX5 whole entry): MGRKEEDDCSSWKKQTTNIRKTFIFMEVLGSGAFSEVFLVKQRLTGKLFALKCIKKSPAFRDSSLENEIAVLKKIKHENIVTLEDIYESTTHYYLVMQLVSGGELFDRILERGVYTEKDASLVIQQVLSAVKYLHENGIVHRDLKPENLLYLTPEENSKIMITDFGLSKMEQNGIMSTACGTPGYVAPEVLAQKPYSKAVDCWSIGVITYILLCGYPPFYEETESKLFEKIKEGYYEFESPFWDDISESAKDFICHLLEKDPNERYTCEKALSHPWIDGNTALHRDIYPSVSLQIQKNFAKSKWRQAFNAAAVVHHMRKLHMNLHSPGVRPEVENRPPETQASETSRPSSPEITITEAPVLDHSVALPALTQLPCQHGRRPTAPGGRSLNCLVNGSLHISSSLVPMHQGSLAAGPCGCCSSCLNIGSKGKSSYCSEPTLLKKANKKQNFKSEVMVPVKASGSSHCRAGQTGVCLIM

NEK1 = target: T2, NEK1 (Homo sapiens, UniProt Q96PY6)
T2 sequence (Q96PY6 1-1258): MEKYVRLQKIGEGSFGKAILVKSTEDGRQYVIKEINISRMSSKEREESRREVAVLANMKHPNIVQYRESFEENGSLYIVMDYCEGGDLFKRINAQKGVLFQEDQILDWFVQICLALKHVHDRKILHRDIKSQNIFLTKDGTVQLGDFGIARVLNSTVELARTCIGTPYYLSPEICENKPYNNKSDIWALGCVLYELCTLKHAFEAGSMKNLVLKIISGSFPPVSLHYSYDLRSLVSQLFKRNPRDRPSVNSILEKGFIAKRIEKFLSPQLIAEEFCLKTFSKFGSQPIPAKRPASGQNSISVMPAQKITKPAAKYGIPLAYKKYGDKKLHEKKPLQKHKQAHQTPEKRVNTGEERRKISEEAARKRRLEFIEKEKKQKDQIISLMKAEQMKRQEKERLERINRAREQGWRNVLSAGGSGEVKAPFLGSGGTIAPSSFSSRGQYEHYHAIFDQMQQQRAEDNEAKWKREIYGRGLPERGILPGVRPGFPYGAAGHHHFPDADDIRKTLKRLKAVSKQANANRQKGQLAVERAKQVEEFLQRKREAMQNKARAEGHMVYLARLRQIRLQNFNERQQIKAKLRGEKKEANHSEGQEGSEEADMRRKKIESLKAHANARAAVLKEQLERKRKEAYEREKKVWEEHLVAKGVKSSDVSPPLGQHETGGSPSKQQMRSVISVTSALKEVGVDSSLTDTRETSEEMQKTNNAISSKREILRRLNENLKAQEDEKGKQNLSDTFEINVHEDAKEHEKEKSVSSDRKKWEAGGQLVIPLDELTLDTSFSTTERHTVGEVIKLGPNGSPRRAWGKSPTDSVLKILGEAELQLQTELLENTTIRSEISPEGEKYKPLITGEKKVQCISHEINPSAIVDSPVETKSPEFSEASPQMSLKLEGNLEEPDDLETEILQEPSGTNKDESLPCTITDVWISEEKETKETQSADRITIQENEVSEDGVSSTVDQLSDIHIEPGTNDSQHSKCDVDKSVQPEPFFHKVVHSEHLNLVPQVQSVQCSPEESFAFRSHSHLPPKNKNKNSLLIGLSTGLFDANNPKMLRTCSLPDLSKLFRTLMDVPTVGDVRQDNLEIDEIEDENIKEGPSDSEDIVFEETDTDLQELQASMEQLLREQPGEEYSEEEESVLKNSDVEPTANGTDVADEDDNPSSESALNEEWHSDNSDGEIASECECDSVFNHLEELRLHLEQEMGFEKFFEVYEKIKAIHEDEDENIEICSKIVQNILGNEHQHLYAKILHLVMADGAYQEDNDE

MARK4 = target: T3, MARK4 (Homo sapiens, UniProt Q96L34)
T3 sequence (Q96L34 1-752): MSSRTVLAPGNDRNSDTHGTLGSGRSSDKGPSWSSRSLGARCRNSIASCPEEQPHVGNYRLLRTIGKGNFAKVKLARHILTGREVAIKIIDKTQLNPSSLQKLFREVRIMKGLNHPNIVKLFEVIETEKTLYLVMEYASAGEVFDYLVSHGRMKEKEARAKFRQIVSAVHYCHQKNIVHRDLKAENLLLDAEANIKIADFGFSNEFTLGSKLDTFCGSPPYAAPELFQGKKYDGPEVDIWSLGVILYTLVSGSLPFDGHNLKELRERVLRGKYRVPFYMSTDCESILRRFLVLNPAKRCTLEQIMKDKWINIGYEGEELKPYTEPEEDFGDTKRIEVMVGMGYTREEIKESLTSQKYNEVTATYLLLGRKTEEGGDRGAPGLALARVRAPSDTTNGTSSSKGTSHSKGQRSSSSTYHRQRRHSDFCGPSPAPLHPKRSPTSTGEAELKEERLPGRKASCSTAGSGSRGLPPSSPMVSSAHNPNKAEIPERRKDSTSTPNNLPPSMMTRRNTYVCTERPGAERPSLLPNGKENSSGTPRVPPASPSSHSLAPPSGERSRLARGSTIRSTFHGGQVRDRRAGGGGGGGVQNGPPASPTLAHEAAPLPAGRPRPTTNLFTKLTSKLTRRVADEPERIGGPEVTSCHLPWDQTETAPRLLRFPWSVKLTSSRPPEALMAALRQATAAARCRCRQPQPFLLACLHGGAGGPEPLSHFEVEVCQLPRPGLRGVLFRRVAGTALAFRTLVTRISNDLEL

DAPK3 = DAPK3 (Homo sapiens, UniProt O43293)
DAPK3, sequence (O43293 whole entry): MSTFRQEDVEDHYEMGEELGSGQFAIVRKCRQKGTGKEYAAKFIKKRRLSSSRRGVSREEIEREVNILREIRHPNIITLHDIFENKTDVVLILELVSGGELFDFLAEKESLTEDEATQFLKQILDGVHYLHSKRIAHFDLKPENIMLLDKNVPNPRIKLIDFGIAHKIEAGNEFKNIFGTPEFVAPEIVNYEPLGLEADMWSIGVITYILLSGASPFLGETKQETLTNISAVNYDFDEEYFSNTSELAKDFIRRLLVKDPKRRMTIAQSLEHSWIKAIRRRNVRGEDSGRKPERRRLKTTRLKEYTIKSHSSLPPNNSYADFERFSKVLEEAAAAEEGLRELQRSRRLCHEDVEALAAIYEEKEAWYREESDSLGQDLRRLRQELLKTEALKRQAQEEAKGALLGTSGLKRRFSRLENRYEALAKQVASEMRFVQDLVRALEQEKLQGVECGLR

Compound: CNc1ncc2cc(-c3cc(C(F)(F)F)ccc3Cl)c(=O)n(CCCCN)c2n1 [compound 9, 8-(4-Aminobutyl)-6-(2-chloro-5-(trifluoromethyl)phenyl)-2-(methylamino)pyrido[2,3-d]pyrimidin-7(8H)-one]
- ΔTm at 10 µM (MYT1; read-out: dTm 9): -0.2 °C
- ΔTm at 10 µM (CaMK1g; read-out: dTm 9): 0.6 °C
- ΔTm at 10 µM (NEK1; read-out: dTm 9): 0.1 °C
- ΔTm at 10 µM (MARK4; read-out: dTm 9): 0 °C
- ΔTm at 10 µM (DAPK3; read-out: dTm 9): -0.1 °C

Compound: CNc1ncc2cc(-c3cc(Cl)ccc3Cl)c(=O)n(CCCCN)c2n1 [compound 8, 8-(4-Aminobutyl)-6-(2,5-dichlorophenyl)-2-(methylamino)pyrido[2,3-d]pyrimidin-7(8H)-one]
- ΔTm at 10 µM (MYT1; read-out: dTm 8): 0.3 °C
- ΔTm at 10 µM (CaMK1g; read-out: dTm 8): 1.1 °C
- ΔTm at 10 µM (NEK1; read-out: dTm 8): 0.1 °C
- ΔTm at 10 µM (MARK4; read-out: dTm 8): 1 °C
- ΔTm at 10 µM (DAPK3; read-out: dTm 8): -0.1 °C

Compound: CNc1ncc2cc(-c3cc(F)c(-c4cccc(C)n4)cc3F)c(=O)n(CCCCN)c2n1 [compound 12, 8-(4-Aminobutyl)-6-(2,5-difluoro-4-(6-methylpyridin-2-yl)phenyl)-2-(methylamino)pyrido[2,3-d]pyrimidin-7(8H)-one]
- ΔTm at 10 µM (MYT1; read-out: dTm 12): -1.8 °C
- ΔTm at 10 µM (CaMK1g; read-out: dTm 12): 3.4 °C
- ΔTm at 10 µM (NEK1; read-out: dTm 12): -0.4 °C
- ΔTm at 10 µM (MARK4; read-out: dTm 12): 4.5 °C
- ΔTm at 10 µM (DAPK3; read-out: dTm 12): 0.3 °C

The next lines start with the values.

- ΔTm at 10 µM (MYT1; read-out: dTm 11): -0.4 °C
- ΔTm at 10 µM (CaMK1g; read-out: dTm 11): 0.8 °C
- ΔTm at 10 µM (NEK1; read-out: dTm 11): 0.1 °C
- ΔTm at 10 µM (MARK4; read-out: dTm 11): 1.8 °C
- ΔTm at 10 µM (DAPK3; read-out: dTm 11): -0.2 °C
Compound: CNc1ncc2cc(-c3cc(Br)ccc3Br)c(=O)n(CCCCN)c2n1 [compound 11, 8-(4-Aminobutyl)-6-(2,5-dibromophenyl)-2-(methylamino)pyrido[2,3-d]pyrimidin-7(8H)-one]

- ΔTm at 10 µM (MYT1; read-out: dTm 10): 0.6 °C
- ΔTm at 10 µM (CaMK1g; read-out: dTm 10): 0.7 °C
- ΔTm at 10 µM (NEK1; read-out: dTm 10): 0.1 °C
- ΔTm at 10 µM (MARK4; read-out: dTm 10): 1.7 °C
- ΔTm at 10 µM (DAPK3; read-out: dTm 10): 0.1 °C
Compound: CNc1ncc2cc(-c3cc(Cl)ccc3Br)c(=O)n(CCCCN)c2n1 [compound 10, 8-(4-Aminobutyl)-6-(2-bromo-5-chlorophenyl)-2-(methylamino)pyrido[2,3-d]pyrimidin-7(8H)-one]
